From patent publication US11013224B2, “Substance and composition for veterinary purpose” (priority 2016, dated 2021) come the findings set out here.

Read-outs that look alike come from different tables or passages of the source.

Series [1] has as its system hoof. Nature of the series: Application of cromoglycate using inhalation in horses. The class given is in vivo. The protocol:
Gas mix system and the Air-ONE nebuliser were prepared and operated as per manufacturer's instructions. […] Treatment was continued until all 70 ml had been inhaled (between 20 to 30 minutes). Horses were treated at 2 day intervals for at least 1 and up to 3 weeks. […] Micro-circulation was measured during inhalation using PeriFlux System 5000. Hoof quality and growth were determined as described above.

For series [2], the system named is hoof. In words: Application of cromoglycate using limb perfusion in healthy horses. The class given is in vivo. How it is done: Standard blood analysis was carried out before and after treatment. Hoof quality and growth were determined over a period of time as described above.
In series [3] the test system is hoof. The protocol:
Routine equine intravenous fluid therapy was carried out twice per week for 4 weeks. Standard blood analysis was carried out on Abbott i-STAT systems, Abbott Architect ci8200 and Architect Celldyn CD3700 before and after treatment. Micro-circulation was measured during treatment using PeriFlux System 5000. Hoof quality and growth were determined as described above.

[4] abbreviates: limb perfusion, 35 ml of 71 g/L per front limb.

On to `O=C(O)c1cc(=O)c2c(OCC(O)COc3cccc4oc(C(=O)O)cc(=O)c34)cccc2o1` [sodium cromoglycate], for which the “Tolerability of repeated inhalation” value in the series with hoof [1] (70 ml of 70 g/l per horse by nebuliser, 2 day intervals, 1 to 3 weeks) is “well tolerated”. Moreover, the Calcium upon treatment entry in the series on hoof [1] (inhalation) and with hoof [3] (intravenous fluid therapy) was “effected” in each case. In addition, the “Digestion, coat and hoof quality” value with hoof [1] (inhalation) and in the series with hoof [3] (intravenous fluid infusion) was “improves” throughout. Moreover, the “Hoof growth and hoof quality” value with hoof [1] (inhalation) was “increases hoof growth and improves hoof quality”; with hoof [2] (limb perfusion), “increases hoof growth and improves hoof quality”; with hoof [3] (intravenous fluid), “increases hoof growth and improves hoof quality”. Further, the Micro-circulation entry in the series on hoof [1] (measured during inhalation, PeriFlux System 5000) was “activates”. Moreover, the “Heart rate, temperature and gut sounds” value in the series on hoof [2] (24 h after injection) is reported as “normal”. Also, in the series with hoof [2] (setting [4]), the “Ionized calcium, pre vs post treatment blood data” value is “a change”. The “Potassium, pre vs post treatment blood data” value in the series on hoof [2] (setting [4]) was “a reduction”.
